Test results taken from US20220324835A1 (Nurix Therapeutics, Inc., priority 2018, published 2022).
Where two headings read alike, the source gives them in different places.

What was measured:
[1] = test system: primary human NK cells; assay: NK cell activation assessed by cytokine secretion (coculture with K562 NucRed target cells); assay type: cell-based; details: for fold induction at 0.625 µM: 0.625 μM compound; for fold induction at 2.5 µM: 2.5 μM compound
Procedure: Peripheral blood mononuclear cells (PBMC) were obtained either: 1) by using Ficoll-Paque™ (GE Healthcare) for separation of peripheral blood hematopoietic cells from buffy coats of healthy human donors; or 2) directly from LeukoPak donations. […] The cells were cultured overnight with IL-2 (60 ng/mL) at 37° C. 5% CO2. Cbl-b inhibitors were added 1 hour prior to stimulation and incubated at 37° C. 5% CO2 at a specific concentration (e.g., 10 μM, 1 μM, or 0.1 μM) with a final DMSO concentration of <0.1%. NK cells were co-cultured with target cells that were engineered to have a red nucleus (K562 NucRed) measurable by flow cytometry. […] The cells were mixed at the indicated ratios (e.g., 5:1, 1:1, or 1:5) of NK (effector cells) to K562 NucRed (target cells) for 6 hours. Cell free supernatants were collected and analyzed for cytokine secretion (e.g. TNFα, IFNγ, or MIP1β) by ELISA or Luminex multiplex kits following the manufacturer's protocol. IFNγ secretion was assessed using an R&D Systems ELISA kit (Catalog #DY285), TNFα secretion was assessed using an R&D Systems ELISA kit (Catalog #DY210), and MIP1β secretion was assessed using an R&D Systems ELISA kit (Catalog #DY271).
Readouts were reported as fold change over baseline. Baseline for this study was the measurement obtained from primary human NK effector cells cocultured with K562 NucRed target cells in the absence of a Cbl-b inhibitor. For NK cells cocultured with K562 NucRed cells, changes greater than 2.0-fold over baseline for cytokine secretion were considered a positive response (Table 10a and 10b).

[2] = test system: T-cell; assay: CD25 cell surface staining on T-cells stimulated with anti-CD3 antibody alone (Biological Example 2); assay type: cell-based; details: primary human total T-cells, baseline = anti-CD3/anti-CD28 stimulated cells without inhibitor, read-out: CD25 staining, Anti-CD3 stimulation, fold change over baseline; for fold induction at 1 µM: 1 μM compound; for fold induction at 8 µM: 8 μM compound
[3] = K562, NK cells cocultured with K562 NucRed, 1:1 E/T, read-out: IFNγ secretion, fold change over baseline
[4] = K562, NK cells cocultured with K562 NucRed, 1:1 E/T, read-out: TNFα secretion, fold change over baseline
[5] = K562, NK cells cocultured with K562 NucRed, 1:1 E/T, 10 μM compound, read-out: IFNγ secretion, fold change over baseline
[6] = K562, NK cells cocultured with K562 NucRed, 1:1 E/T, 10 μM compound, read-out: TNFα secretion, fold change over baseline
[7] = K562, 1:1 E/T, read-out: IFNγ secretion
[8] = K562, 1:1 E/T, read-out: MIP1β secretion
[9] = K562, 1:1 E/T, read-out: TNFα secretion
[10] = K562, 1:1 E/T, 10 μM, read-out: IFNγ secretion
[11] = K562, 1:1 E/T, 10 μM, read-out: MIP1β secretion
[12] = K562, 1:1 E/T, 10 μM, read-out: TNFα secretion
[13] = K562, 5:1 E/T, read-out: IFNγ secretion
[14] = K562, 5:1 E/T, read-out: MIP1β secretion
[15] = K562, 5:1 E/T, read-out: TNFα secretion
[16] = K562, 5:1 E/T, 10 μM, read-out: IFNγ secretion
[17] = K562, 5:1 E/T, 10 μM, read-out: MIP1β secretion
[18] = K562, 5:1 E/T, 10 μM, read-out: TNFα secretion

SMILES	fold induction at 0.625 µM [1, 3]	fold induction at 0.625 µM [1, 4]	fold induction at 2.5 µM [1, 3]	fold induction at 2.5 µM [1, 4]	fold induction at 10 µM [1, 5]	fold induction at 10 µM [1, 6]	fold induction at 1 µM [2]	fold induction at 8 µM [2]	fold induction at 1 µM [1, 7]	fold induction at 1 µM [1, 8]	fold induction at 1 µM [1, 9]	fold induction at 10 µM [1, 10]	fold induction at 10 µM [1, 11]	fold induction at 10 µM [1, 12]	fold induction at 1 µM [1, 13]	fold induction at 1 µM [1, 14]	fold induction at 1 µM [1, 15]	fold induction at 10 µM [1, 16]	fold induction at 10 µM [1, 17]	fold induction at 10 µM [1, 18]
C[C@H](Cc1nncn1C)c1cccc(N2Cc3c(cc(CN4CC(O)C4)cc3C(F)(F)F)C2=O)c1 [Compound 393, (R)-6-((3-hydroxyazetidin-1-yl)methyl)-2-(3-(1-(4-methyl-4H-1,2,4-triazol-3-yl)propan-2-yl)phenyl)-4-(trifluoromethyl)isoindolin-1-one]	1.01 to 2	1.01 to 2	2.01 to 5	2.01 to 5	2.01 to 5	2.01 to 5	> 1	> 1	–	–	–	–	–	–	–	–	–	–	–	–
Cn1cnnc1C(F)(F)[C@](C)(F)c1cccc(N2Cc3c(cc(C(=O)N4CC[C@H](O)C4)cc3C(F)(F)F)C2=O)c1 [Compound 438, 6-((S)-3-hydroxypyrrolidine-1-carbonyl)-2-(3-((R)-1,1,2-trifluoro-1-(4-methyl-4H-1,2,4-triazol-3-yl)propan-2-yl)phenyl)-4-(trifluoromethyl)isoindolin-1-one]	1.01 to 2	1.01 to 2	1.01 to 2	1.01 to 2	2.01 to 5	1.01 to 2	0.801 to 1	> 1	< 1	< 1	1.01 to 2	< 1	< 1	1.01 to 2	< 1	< 1	1.01 to 2	1.01 to 2	1.01 to 2	1.01 to 2
COC1CN(Cc2cc3c(c(C(F)(F)F)c2)CN(c2cccc([C@@](C)(F)C(F)(F)c4nncn4C)c2)C3=O)C1 [Compound 452, (R)-6-((3-methoxyazetidin-1-yl)methyl)-2-(3-(1,1,2-trifluoro-1-(4-methyl-4H-1,2,4-triazol-3-yl)propan-2-yl)phenyl)-4-(trifluoromethyl)isoindolin-1-one]	> 5	1.01 to 2	> 5	2.01 to 5	> 5	2.01 to 5	> 1	> 1	–	–	–	–	–	–	–	–	–	–	–	–
Cc1cc(C(=O)Nc2cccc([C@@H](C)Cc3nncn3C)c2)nc(C2CC2)n1 [Compound 325, (S)-2-Cyclopropyl-6-methyl-N-(3-(1-(4-methyl-4H-1,2,4-triazol-3-yl)propan-2-yl)phenyl)pyrimidine-4-carboxamide]	1.01 to 2	< 1	1.01 to 2	< 1	2.01 to 5	1.01 to 2	–	–	–	–	–	–	–	–	–	–	–	–	–	–
C[C@H](Cc1nncn1C)c1cccc(NC(=O)c2cc(C(=O)N3CC[C@H](O)C3)cc(C(F)(F)F)n2)c1 [Compound 220, 4-((S)-3-hydroxypyrrolidine-1-carbonyl)-N-(3-((R)-1-(4-methyl-4H-1,2,4-triazol-3-yl)propan-2-yl)phenyl)-6-(trifluoromethyl)picolinamide]	–	–	–	–	–	–	–	–	1.01 to 2	1.01 to 2	1.01 to 2	2.01 to 5	2.01 to 5	2.01 to 5	1.01 to 2	1.01 to 2	1.01 to 2	2.01 to 5	2.01 to 5	2.01 to 5
Cn1cnnc1C(F)(F)[C@](C)(F)c1cccc(N2Cc3c(cc(CN4CC[C@@H](C#N)C4)cc3C(F)(F)F)C2=O)c1 [Compound 455, (R)-1-((3-oxo-2-(3-((R)-1,1,2-trifluoro-1-(4-methyl-4H-1,2,4-triazol-3-yl)propan-2-yl)phenyl)-7-(trifluoromethyl)isoindolin-5-yl)methyl)pyrrolidine-3-carbonitrile]	> 5	1.01 to 2	> 5	2.01 to 5	> 5	2.01 to 5	0.801 to 1	> 1	–	–	–	–	–	–	–	–	–	–	–	–
Cc1n[nH]c(C)c1-c1cc2c(c(C(F)(F)F)c1)CN(c1cccc(C3(Cc4nncn4C)COC3)c1)C2=O [Compound 385, 6-(3,5-dimethyl-1H-pyrazol-4-yl)-2-(3-{3-[(4-methyl-4H-1,2,4-triazol-3-yl)methyl]oxetan-3-yl}phenyl)-4-(trifluoromethyl)-2,3-dihydro-1H-isoindol-1-one]	1.01 to 2	< 1	2.01 to 5	1.01 to 2	2.01 to 5	1.01 to 2	> 1	> 1	–	–	–	–	–	–	–	–	–	–	–	–
C[C@H](Cc1nncn1C)c1cccc(N2Cc3c(cc(CN4CC(C)(O)C4)cc3C(F)(F)F)C2=O)c1 [Compound 397]	2.01 to 5	1.01 to 2	2.01 to 5	2.01 to 5	> 5	2.01 to 5	> 1	> 1	–	–	–	–	–	–	–	–	–	–	–	–
C[C@H](Cc1nncn1C)c1cccc(NC(=O)c2n[nH]c3c2CCC3)c1 [Compound 313, (R)-N-(3-(1-(4-Methyl-4H-1,2,4-triazol-3-yl)propan-2-yl)phenyl)-1,4,5,6-tetrahydrocyclopenta[c]pyrazole-3-carboxamide]	< 1	1.01 to 2	1.01 to 2	1.01 to 2	2.01 to 5	1.01 to 2	–	–	–	–	–	–	–	–	–	–	–	–	–	–
C[C@H](Cc1nncn1C)c1cccc(N2Cc3c(cc(CN4CC[C@](C)(O)C4)cc3C(F)(F)F)C2=O)c1 [Compound 398, 6-(((S)-3-hydroxy-3-methylpyrrolidin-1-yl)methyl)-2-(3-((R)-1-(4-methyl-4H-1,2,4-triazol-3-yl)propan-2-yl)phenyl)-4-(trifluoromethyl)isoindolin-1-one]	2.01 to 5	1.01 to 2	2.01 to 5	2.01 to 5	> 5	2.01 to 5	> 1	> 1	–	–	–	–	–	–	–	–	–	–	–	–
Cn1cnnc1CC1(c2cccc(N3Cc4c(cc(CN5CC[C@H](C#N)C5)cc4C(F)(F)F)C3=O)c2)COC1 [Compound 422, (S)-1-((2-(3-(3-((4-methyl-4H-1,2,4-triazol-3-yl)methyl)oxetan-3-yl)phenyl)-3-oxo-7-(trifluoromethyl)isoindolin-5-yl)methyl)pyrrolidine-3-carbonitrile]	1.01 to 2	1.01 to 2	2.01 to 5	1.01 to 2	2.01 to 5	2.01 to 5	> 1	> 1	–	–	–	–	–	–	–	–	–	–	–	–
Cn1cnnc1CC1(c2cccc(NC(=O)c3nc4c(C(F)(F)F)cccc4[nH]3)c2)COC1 [Compound 335, N-(3-{3-[(4-methyl-1,2,4-triazol-3-yl)methyl]oxetan-3-yl}phenyl)-4-(trifluoromethyl)-1H-1,3-benzodiazole-2-carboxamide]	1.01 to 2	1.01 to 2	2.01 to 5	1.01 to 2	2.01 to 5	2.01 to 5	–	–	–	–	–	–	–	–	–	–	–	–	–	–
